Laboratory results from patent US10590422B2, “Anticancer therapeutic intervention” (PHYZAT BIOPHARMACEUTICALS, LDA., priority 2017, dated 2020).

System: ASCT2 mRNA
Experiment: ASCT2 gene expression (RT-qPCR) after ASCT2 gene silencing in human colon cancer HTC-116 cells
Assay type: cell-based
Conditions: treatment 6 h
Experimental: SK-HEP-1, T24, HT-1080 and HCT-116 cell lines were maintained in a humidified atmosphere of 5% CO2 at 37° C. SK-HEP-1 cells were grown in RPMI-1640 (Sigma, St. Louis, Mo.) supplemented with 20% fetal bovine serum (FBS) (Gibco, UK), 100 U/mL penicillin G, 0.25 μg/mL amphotericin B, 100 μg/mL streptomycin (Gibco, UK), 25 mM sodium bicarbonate (Merck, Germany) and 25 mM N-2-hydroxyethylpiperazine-N′-2-ethanosulfonic acid (HEPES) (Sigma, St. Louis, Mo.). T24 and HT-1080 cells were grown, respectively, in Dulbecco's Modified Eagle's Medium (DMEM)—high glucose (Sigma, St. Louis, Mo.) and DMEM—low glucose (Sigma, St. Louis, Mo.), supplemented with 10% FBS (Gibco, UK), 100 U/mL penicillin G, 0.25 μg/mL amphotericin B, 100 μg/mL streptomycin (Gibco, UK), 25 mM sodium bicarbonate (Merck, Germany) and 25 mM HEPES (Sigma, St. Louis, Mo.). HCT-116 cells were grown in McCoy's 5A (Sigma, St. Louis, Mo.) supplemented with 10% FBS (Gibco, UK), 100 U/mL penicillin G, 0.25 μg/mL amphotericin B, 100 μg/mL streptomycin (Gibco, UK), 25 mM sodium bicarbonate (Merck, Germany) and 25 mM HEPES (Sigma, St. Louis, Mo.). For all cell lines the medium was changed every 2 days, and cells reached confluence 3-4 days after initial seeding. For subculturing, cells were dissociated with 0.25% trypsin-ethylenediaminetetraacetic acid (EDTA) (Sigma, St. Louis, Mo.), split 1:15 or 1:20 and subcultured in a 21-cm^2 growth area (Sarstedt, Germany).
Total RNA was isolated and purified using the SV Total RNA Isolation System (Promega, USA) according to manufacturer's instructions. RNA quality and concentration were verified in the NanoDrop ND1000 Spectrophotometer (Thermo Scientific, USA), and RNA integrity and genomic DNA contamination were evaluated by agarose gel electrophoresis. Total RNA (1 μg) was converted into cDNA using the Maxima Scientific First Strand cDNA Synthesis Kit for RT-qPCR (Thermo Scientific, USA), according to instructions. The following protocol was used: 1st step, 10 min at 25° C.; 2nd step, 15 min at 50° C.; 3rd step, 5 min at 85° C. cDNA was used for qPCR analysis using Maxima SYBR Green qPCR Master Mix (Thermo Scientific, USA) in the StepOnePlus instrument (Applied Biosystems, USA). QuantiTect Primer Assay for LAT1 and ASCT2 and for the endogenous control gene GAPDH (Quiagen, Germany) were used. The qPCR reaction was performed in 96-well PCR plates (Sarstedt, Germany) as follows: one cycle of 10 min at 95° C., followed by 40 PCR cycles at 95° C. 15 s and 60° C. 60 s. […] No template controls were always evaluated for each target gene. Quantification cycle (Cq) values were generated automatically by the StepOnePlus 2.3 Software and the ratio of the target gene was expressed in comparison to the endogenous control gene GAPDH.
Cells were plated in 24-well (Sarstedt, Germany) or 6-well plates (Sarstedt, Germany) or 96-well plates with black walls clear bottom (BD Biosciences, USA) and incubated 24 h under normal growth conditions. siRNAs against ASCT2 and transfection agent were diluted at desired concentrations and mixed according to transfection agent manufacturer's instructions. The mixture was incubated 20 min at RT for siRNA-complex formation, after which it was added to the cells and incubated at 37° C., 5% CO2. After the incubation period, serum and antibiotic was restored and cells were further incubated at normal conditions for the desired time points until evaluation of ASCT2 activity or ASCT2 expression (immunoblotting and RT-qPCR).

278/403/404 (sense UGCCACGGUCGCCUCUGAGAATT; antisense UUCUCAGAGGCGACCGUGGCATT; siRNA; sugars by position and backbone not given here; further chemistry not fully specified)
ASCT2 mRNA relative abundance (5 or 25 nM siRNA, at 24 h or 48 h, 0.5% Lipofectamine 2000, FIGS. 9B and 9C): decreased | ASCT2 mRNA relative abundance (72 h, 0.17% Lipofectamine 2000 or 0.1% Injectin, FIG. 20A): significantly decreased
